{
  "source": "patent US20200171025A1",
  "about": "“PHARMACEUTICAL COMPOSITION COMPRISING BREXPIPRAZOLE AND PROCESS FOR PREPARATION THEREOF” (priority 2018, published 2020)",
  "origin": "cited, not measured here",
  "details": "as per BCS",
  "data": [
    {"smiles": "O=c1ccc2ccc(OCCCCN3CCN(c4cccc5sccc45)CC3)cc2[nH]1", "note": "[Brexpiprazole, 7-{4-[4-(1-Benzothiophen-4-yl)piperazin-1-yl]butoxy}quinolin-2(1H)-one]", "values": [
      {"measurement": "Aqueous solubility", "value": "low aqueous solubility"},
      {"measurement": "Permeability", "value": "high permeability"}
    ]}
  ]
}
